Reference: article PMC12270663, “Cagrilintide lowers bodyweight through brain amylin receptors 1 and 3” (eBioMedicine, 2025)

How the values were obtained:
[1] = tested on: WT 129S2 chow-fed mice; experiment: Study 1: acute food intake and body weight response; format: in vivo, mouse; settings: all doses (3, 30, 300 nmol/kg s.c.)
Method: Thirty-two 12 week-old male WT 129S2/SvEv mice (Janvier Elevage, France) were individually housed in food monitoring cages (BioDAQ, New Brunswick, NJ, USA). Mice were housed in a controlled environment maintained at 21 ± 2 °C, under a 12/12 h light–dark cycle (lights off at 10.00 h). They were adapted to the cages and hoppers for 2 weeks before being tested. Mice were fed water and chow diet ad libitum (3.14 kcal/g of food; Kliba, Switzerland, cat# 3436).
Mice were injected subcutaneously (s.c.) at dark onset after a 4 h fast in the light phase with vehicle, 3 nmol/kg, 30 nmol/kg or 300 nmol/kg of cagrilintide.

[2] = tested on: AP neurons of WT, RAMP1 KO, RAMP3 KO and RAMP1/3 KO mice; experiment: Study 4 cohort 2: cFos positive neurons, AP; format: in vivo, mouse; settings: 3 nmol/kg i.p.
Method: (§1) Mice were group housed in a controlled environment maintained at 21 ± 2 °C, under a 12/12 h light–dark cycle (lights off at 11.00 h). In the first cohort, 25 male WT and 25 male RAMP1/3 KO mice aged between 12 and 20 week-old were fed chow diet and maintained under group housing condition. In the second cohort, 18 male WT, 18 male RAMP1 KO, 18 male RAMP3 KO and 18 male RAMP1/3 KO mice aged between 10 and 15 week-old were fed chow diet and maintained under group housing condition.
Cohort 2: WT, RAMP1 KO, RAMP3 KO and RAMP1/3 KO were injected i.p. at dark onset after a 12 h fast in the light phase with vehicle or cagrilintide (3 nmol/kg) (n = 6/group).
For both cohorts, animals were deeply anesthetised 90 min later (pentobarbital 100 mg/kg, i.p) and transcardially perfused with cold 0.1 M of phosphate buffer (PB) for 1.5 min followed by 4% of paraformaldehyde (PFA) in PB for 2.5 min. […]
(§2) Photomicrographs of all sections containing AP, NTS and LPBN were taken at 20× magnification using Zeiss Axio Scan.Z1 slidescanner (Center for Microscopy and Image Analysis UZH, Zeiss, Germany). […] Scanned images were imported into QuPath (QuPath 0.5.0) for quantification. Three to four sections were counted and averaged per area of interest. […] The numbers of positive counted DAPI cells containing a cFos signal were automatically counted within the region. […]

[3] = tested on: rAMYR3; set-up: method as in PMID 34288673; settings: pEC50 = -LogEC50; cited from earlier work
[4] = tested on: LPBN neurons of WT and RAMP1/3 KO mice; experiment: Study 4 cohort 1: cFos positive neurons, LPBN; format: in vivo, mouse; settings: both 3 nmol/kg i.p., 90 min
Method: as §1
For both cohorts, animals were deeply anesthetised 90 min later (pentobarbital 100 mg/kg, i.p) and transcardially perfused with cold 0.1 M of phosphate buffer (PB) for 1.5 min followed by 4% of paraformaldehyde (PFA) in PB for 2.5 min. Brains were removed and postfixed overnight in 4% of PFA and cryoprotected in 20% of sucrose-PB for 24 h. Brains were frozen in hexane on dry ice and stored at −80 °C until sectioning. […]
as §2

[5] = tested on: WT and RAMP1/3 KO high fat diet fed mice; experiment: Study 3: body composition by EchoMRI; format: in vivo, mouse; settings: 3 nmol/kg/d s.c., 3 weeks
Method: (§3) Mice were s.c. injected once a day for 3 weeks 1 h before dark onset between 9.00 and 10.00 h. Prior to injection, daily body weight and food intake were measured manually. On the day of sacrifice, mice were anesthetised with pentobarbital (100 mg/kg, i.p., Cantonal Pharmacy of Zurich, Switzerland) 24 h after receiving the last dose of peptide.
Brains were harvested, snap frozen on dry ice and kept at −80 °C until mRNA extraction for next-generation sequencing (NGS) analysis. Blood samples were collected from the right ventricle of the heart during the sacrifice in 1 mL EDTA-coated tubes containing dipeptidyl peptidase-4 inhibitor (10 μL/mL blood; Sigma Aldrich, Switzerland, cat# DPP4-010) and protease inhibitor (30 μL/mL blood; Sigma Aldrich, Switzerland, cat# P2714). After centrifugation, plasma was kept at −80 °C. The mice were stored at −20 °C until body composition analysis was performed.
Lean and fat mass were measured post-mortem using EchoMRI (EchoMRI LLC, USA) at the Zurich Integrative Rodent Physiology (University of Zurich). Calibrations and measurements were performed according to manufacturer's instructions. Two measurements were performed and averaged per mouse. Fat mass and lean mass values are expressed as percent of body weight.

[6] = tested on: WT and RAMP1/3 KO high fat diet fed mice; experiment: Study 3: 3-week treatment, food intake and body weight; format: in vivo, mouse
Method: Male mice were housed in a controlled environment maintained at 21 ± 2 °C, under a 12/12 h light–dark cycle (lights off at 11.00 h). Mice had ad libitum access to standard chow (3.14 kcal/g of food; Kliba, Switzerland, cat# 3436) and water, until 3–4 weeks old. Twenty-four WT and twenty-four RAMP 1/3 KO male mice were fed a 60% fat HFD (5.24 kcal/g of food; SSNIFF Spezialdiäten GmbH, Germany, cat# EF D12452) provided ad libitum for 18 weeks. Then mice were fed to a 45% fat HFD (4.73 kcal/g of food; SSNIFF Spezialdiäten GmbH, Germany, cat# EF D12451) provided ad libitum for 6 weeks until the end of the study. The mice were group housed (3–4 mice per cage) until 1 week before the 21-day treatment period. Each cage was equipped with a red plastic house, tissue paper, nest-building material and wood shavings. Prior to the 21-day treatment, mice were injected with vehicle for three days to acclimate to the daily subcutaneous injections and reduce stress associated with the injections.
as §3

[7] = tested on: rCTR(a); set-up: method as in PMID 34288673; settings: pEC50 = -LogEC50; cited from earlier work
[8] = tested on: area postrema (AP) neurons of WT and RAMP1/3 KO mice; experiment: Study 4 cohort 1: cFos positive neurons, AP; format: in vivo, mouse; settings: for Predicted (LS) mean diff., AP cFos after square root transformation: second statistical test, Figure 4b
Method: as §1
For both cohorts, animals were deeply anesthetised 90 min later (pentobarbital 100 mg/kg, i.p) and transcardially perfused with cold 0.1 M of phosphate buffer (PB) for 1.5 min followed by 4% of paraformaldehyde (PFA) in PB for 2.5 min. Brains were removed and postfixed overnight in 4% of PFA and cryoprotected in 20% of sucrose-PB for 24 h. Brains were frozen in hexane on dry ice and stored at −80 °C until sectioning. Stereological brain sampling of the areas of interest was performed and brain were serially cut on a cryostat (Leica Biosystems, Germany, cat# CM3050S), mounted on Superfrost Plus slides (Thermo Fisher Scientific, Reinach, Switzerland), and cryoprotected in 50% of PB, 30% of ethylene glycol, 20% of glycerol, and subsequently stored at −20 °C.
Blocking of the mouse brain sections was performed with 0.4% Triton–4% normal goat serum in PBS for 2 h at room temperature. AP/NTS and LPBN sections were incubated at 4 °C for 48 h with rabbit anti-Fos antibody (1:500, Cell signalling technology, Switzerland, Cat# 2250, RRID: AB_2247211), and then after PBS washes, incubated with goat anti-rabbit Alexa Fluor CY3 (1:200, LuBio Science GmbH, Switzerland for Jackson Immunoresearch, Cat# 111-165-144) or alexa fluor 488 for 2 h at room temperature. After thorough washing in PBS, the sections were counterstained with DAPI, mounted immediately and coverslipped with Vectashield antifade Mounting Medium (Vectorlabs, Burlingame, USA, cat# H-1400).[40]
Photomicrographs of all sections containing AP, NTS and LPBN were taken at 20× magnification using Zeiss Axio Scan.Z1 slidescanner (Center for Microscopy and Image Analysis UZH, Zeiss, Germany). All images for each study were acquired using the same exposure time. Scanned images were imported into QuPath (QuPath 0.5.0) for quantification. Three to four sections were counted and averaged per area of interest. A polygon tool was used manually to determine the boundary of the region of interest of the brain section. A cell detection tool was used to detect every cell in the section by using a built-in cell segmentation algorithm. The cell detection tool was used on the DAPI channel to make sure that only a cell was recognised and not the background or artefact by system. A detection classifier was created by using the create detection classifier function. The numbers of positive counted DAPI cells containing a cFos signal were automatically counted within the region. The experimental group was blinded to the experimenter during the analysis.

CC[C@H](C)[C@H](NC(=O)[C@@H]1CCCN1C(=O)CNC(=O)[C@H](Cc1ccccc1)NC(=O)[C@H](CC(N)=O)NC(=O)[C@H](CC(N)=O)NC(=O)[C@H](CO)NC(=O)[C@H](CO)NC(=O)[C@H](Cc1c[nH]cn1)NC(=O)[C@H](CCCNC(=N)N)NC(=O)[C@H](CC(C)C)NC(=O)[C@H](Cc1ccccc1)NC(=O)[C@H](CCC(=O)O)NC(=O)[C@H](C)NC(=O)[C@H](CC(C)C)NC(=O)[C@H](CCCNC(=N)N)NC(=O)[C@H](CCC(N)=O)NC(=O)[C@@H](NC(=O)[C@H](C)NC(=O)[C@@H]1CSSC[C@H](NC(=O)[C@H](CCCCN)NC(=O)CC[C@H](NC(=O)CCCCCCCCCCCCCCCCCCC(=O)O)C(=O)O)C(=O)N[C@@H](CC(N)=O)C(=O)N[C@@H]([C@@H](C)O)C(=O)N[C@@H](C)C(=O)N[C@@H]([C@@H](C)O)C(=O)N1)[C@@H](C)O)C(=O)N[C@@H](CC(C)C)C(=O)N1CCC[C@H]1C(=O)N1CCC[C@H]1C(=O)N[C@H](C(=O)N[C@@H](CC(N)=O)C(=O)N[C@H](C(=O)NCC(=O)N[C@@H](CO)C(=O)N[C@@H](CC(N)=O)C(=O)N[C@H](C(=O)N1CCC[C@H]1C(N)=O)[C@@H](C)O)C(C)C)[C@@H](C)O [Cagrilintide]
acute effect on eating [1]: significantly reduced eating | decrease of activated AP neurons in RAMP1/3 KO compared to WT-injected mice [2]: 40% | Functional assay pEC50 [95% CI], cAMP, rAMYR3 [3]: 9.46 [0.03] M | cFos activated neurons in the LPBN, cagrilintide compared to sCT [4]: −36% | relative fat mass, RAMP1/3 KO compared to WT-treated counterparts [5]: +32% | relative lean mass, RAMP1/3 KO compared to WT-treated counterparts [5]: −22% | effect on body weight ([6]; RAMP1/3 KO mice, 3 nmol/kg/d s.c., 21 days): no effect | acute anorectic effect on day 1 ([6]; RAMP1/3 KO mice, cagrilintide 3, sCT 150 nmol/kg s.c.): no effect | day 21 body weight loss vs WT Veh ([6]; WT mice, 3 nmol/kg/d s.c.): −66% | Body weight change after 3-week treatment ([6]; WT mice, cagrilintide 3, sCT 150 nmol/kg s.c. SID, mean ± SEM, n = 8/group): -3.4 ± 0.51 g | Food intake on Day 1 ([6]; WT mice, cagrilintide 3, sCT 150 nmol/kg s.c., mean ± SEM, n = 7–8/group): 1.2 ± 0.1 g | Functional assay pEC50 [95% CI], cAMP, rCTR(a) [7]: 9.54 [n.d] M | less cFos activated AP neurons in RAMP1/3 KO vs WT mice ([8]; 3 nmol/kg i.p., cohort 1, n = 5–6/group): 57% | Predicted (LS) mean diff., AP cFos after square root transformation ([8]; Cagrilintide (3 nmol/kg), WT vs. RAMP 1/3 KO): 2.537 | Predicted (LS) mean diff., AP cFos after square root transformation ([8]; RAMP 1/3 KO, Vehicle vs. Cagrilintide (3 nmol/kg), Tukey): -3.878 | Predicted (LS) mean diff., AP cFos after square root transformation ([8]; WT, Vehicle vs. Cagrilintide (3 nmol/kg), Tukey): -6.224 | cFos activated neurons in the AP, cagrilintide compared to sCT ([8]; both 3 nmol/kg i.p., WT and KO mice, 90 min): −75%
